From ChEMBL document CHEMBL1201862, “PubChem BioAssay data set” (2004)
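Assay format: 96-well plates, 48-hour exposure. At the GI50, growth is halved.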 Active and inactive are the calls of the source. Rule as the data show it: active = GI50 up to about 1.1 µM and inactive = higher. Non-standard residues stand in square brackets, D forms with d. Residues, ends and D or L forms follow the SMILES beside them. *: point of attachment. Ac5c = NC1(C(=O)O)CCCC1; Boc = CC(C)(C)OC(=O)*; tBu = CC(C)(C)*

Key:
Assay in all cases: growth of human tumour cells (NCI), 48 h
HT-29 = test system: HT-29
SK-MEL-28 = test system: SK-MEL-28
OVCAR-8 = test system: OVCAR-8
CCRF-CEM = test system: CCRF-CEM
MDA-N = test system: MDA-N
MDA-MB-435 = test system: MDA-MB-435
HCT-116 = test system: HCT-116
MDA-MB-231 = test system: MDA-MB-231
SF-268 = test system: SF-268
KM12 = test system: KM12
EKVX = test system: EKVX
TK-10 = test system: TK-10
A549 = test system: A549
RPMI-8226 = test system: RPMI-8226
OVCAR-3 = test system: OVCAR-3
HOP-62 = test system: HOP-62
OVCAR-5 = test system: OVCAR-5
UACC-257 = test system: UACC-257
A498 = test system: A498

Compound | GI50 (HT-29) | GI50 (SK-MEL-28) | GI50 (OVCAR-8) | GI50 (CCRF-CEM) | GI50 (MDA-N) | GI50 (MDA-MB-435) | GI50 (HCT-116) | GI50 (MDA-MB-231) | GI50 (SF-268) | GI50 (KM12) | GI50 (EKVX) | GI50 (TK-10) | GI50 (A549) | GI50 (RPMI-8226) | GI50 (OVCAR-3) | GI50 (HOP-62) | GI50 (OVCAR-5) | GI50 (UACC-257) | GI50 (A498)
CCC1=CCC23C(=O)C=CC(=O)C2(C1)C(=O)c1cccc(OC)c1C3=O (stereo not drawn) | 20.3 µM (inactive) | 18.2 µM (inactive) | 15.2 µM (inactive) | 3.26 µM (inactive) | 16.5 µM (inactive) | 17.1 µM (inactive) | 14.6 µM (inactive) | 15.1 µM (inactive) | 17.6 µM (inactive) | 20.9 µM (inactive) | 13.2 µM (inactive) | 19.1 µM (inactive) | 23.8 µM (inactive) | 4.41 µM (inactive) | 10.1 µM (inactive) | 22.7 µM (inactive) | 16.2 µM (inactive) | 16.3 µM (inactive) | 
COc1cc2cc(C(=O)N3CC(COS(C)(=O)=O)c4ccc(NC(=O)OCc5ccccc5)cc43)[nH]c2c(OC)c1OC (stereo not drawn) | > 100 µM (inactive) | > 100 µM (inactive) | > 100 µM (inactive) | > 100 µM (inactive) | > 100 µM (inactive) | > 100 µM (inactive) | > 100 µM (inactive) | > 100 µM (inactive) | > 100 µM (inactive) | > 100 µM (inactive) | > 100 µM (inactive) | > 100 µM (inactive) | > 100 µM (inactive) |  | > 100 µM (inactive) | 79.1 µM (inactive) | > 100 µM (inactive) | > 100 µM (inactive) | 43.3 µM (inactive)
COc1c2ccsc2c(OC)c2ccsc12 | > 100 µM (inactive) | > 100 µM (inactive) | > 100 µM (inactive) | > 100 µM (inactive) | > 100 µM (inactive) | > 100 µM (inactive) | > 100 µM (inactive) | > 100 µM (inactive) | > 100 µM (inactive) | > 100 µM (inactive) | > 100 µM (inactive) | > 100 µM (inactive) | > 100 µM (inactive) |  | > 100 µM (inactive) | 40.2 µM (inactive) | > 100 µM (inactive) | > 100 µM (inactive) | > 100 µM (inactive)
C/C1=C/C[C@@H](/C(C)=C/c2csc(C)n2)OC(=O)C[C@H](O)C(C)(C)C(=O)[C@H](C)[C@@H](O)[C@@H](C)CCC1 [EPOTHILONE D] | < 0.0001 µM (active) |  | < 0.0001 µM (active) | < 0.0001 µM (active) | < 0.0001 µM (active) | < 0.0001 µM (active) | < 0.0001 µM (active) | < 0.0001 µM (active) | < 0.0001 µM (active) | < 0.0001 µM (active) | < 0.0001 µM (active) | 0.000192 µM (active) | < 0.0001 µM (active) | < 0.0001 µM (active) | < 0.0001 µM (active) | < 0.0001 µM (active) | < 0.0001 µM (active) |  | 
CCn1nc2c3c(ncn3C(C)(C)O2)c1=O | > 100 µM (inactive) | > 100 µM (inactive) |  | > 100 µM (inactive) | > 100 µM (inactive) | > 100 µM (inactive) | > 100 µM (inactive) | > 100 µM (inactive) | > 100 µM (inactive) | > 100 µM (inactive) | > 100 µM (inactive) | > 100 µM (inactive) | > 100 µM (inactive) | > 100 µM (inactive) |  | > 100 µM (inactive) | > 100 µM (inactive) | > 100 µM (inactive) | > 100 µM (inactive)
Cc1ccc(S(=O)(=O)Nn2c(-c3ccccc3)c(C#N)c(-c3ccc([N+](=O)[O-])cc3)c(C#N)c2=O)cc1 | > 100 µM (inactive) | > 100 µM (inactive) | > 100 µM (inactive) | 32.1 µM (inactive) | > 100 µM (inactive) | > 100 µM (inactive) | > 100 µM (inactive) | > 100 µM (inactive) | > 100 µM (inactive) | > 100 µM (inactive) | > 100 µM (inactive) | > 100 µM (inactive) | > 100 µM (inactive) | 25.8 µM (inactive) |  | > 100 µM (inactive) | > 100 µM (inactive) | > 100 µM (inactive) | > 100 µM (inactive)
C/C=C1/CC(C)C(C)(O)C(=O)OCC2C(O)CN3CCC(OC1=O)C23 (stereo not drawn) | > 100 µM (inactive) |  | > 100 µM (inactive) | > 100 µM (inactive) | > 100 µM (inactive) | > 100 µM (inactive) | > 100 µM (inactive) | > 100 µM (inactive) | > 100 µM (inactive) | > 100 µM (inactive) | > 100 µM (inactive) | > 100 µM (inactive) | > 100 µM (inactive) | > 100 µM (inactive) |  | > 100 µM (inactive) | > 100 µM (inactive) | > 100 µM (inactive) | > 100 µM (inactive)
CC#Cc1cc2c(cc1O)CC[C@@H]1[C@@H]2CC[C@]2(C)[C@@H](O)CC[C@@H]12 | 13.8 µM (inactive) | 7.36 µM (inactive) | 2.09 µM (inactive) | 0.684 µM (active) | 0.178 µM (active) | 0.134 µM (active) |  | 8.18 µM (inactive) | 3.59 µM (inactive) | 3.08 µM (inactive) | 2.49 µM (inactive) | 19.9 µM (inactive) | 2.01 µM (inactive) | 1.61 µM (inactive) |  | 1.29 µM (inactive) | 17.9 µM (inactive) | 1.76 µM (inactive) | 5.28 µM (inactive)
Cn1c2ccccc2c(=NNc2cccc(C(=O)O)c2)c2ccccc21 | 3.1 µM (inactive) | 19.2 µM (inactive) | 5.77 µM (inactive) | 6.41 µM (inactive) | 16.1 µM (inactive) | 13.3 µM (inactive) | 4.89 µM (inactive) | 11 µM (inactive) | 10.9 µM (inactive) | 23.3 µM (inactive) | 5.57 µM (inactive) | 15.5 µM (inactive) | 5.75 µM (inactive) | 5.96 µM (inactive) | 3.57 µM (inactive) | 12.7 µM (inactive) | 14.4 µM (inactive) | 28.5 µM (inactive) | 
C[C@@H]1OC2(O)[C@@H]3CCCN3C(=O)N(Cc3ccccc3)N2C1=O (stereo partly drawn) | > 100 µM (inactive) | > 100 µM (inactive) | > 100 µM (inactive) | > 100 µM (inactive) | > 100 µM (inactive) | > 100 µM (inactive) | > 100 µM (inactive) | > 100 µM (inactive) | > 100 µM (inactive) | > 100 µM (inactive) | > 100 µM (inactive) | > 100 µM (inactive) | > 100 µM (inactive) |  | > 100 µM (inactive) | > 100 µM (inactive) | > 100 µM (inactive) | > 100 µM (inactive) | > 100 µM (inactive)
O=C1/C(=C/c2ccc(Br)s2)NC(=S)N1CN1CCCCC1 | 33.2 µM (inactive) | 41.1 µM (inactive) | 33.3 µM (inactive) |  | 33.9 µM (inactive) | 30 µM (inactive) | 31 µM (inactive) | 62.4 µM (inactive) | 39.4 µM (inactive) | 35.6 µM (inactive) | 9.35 µM (inactive) | 34.5 µM (inactive) |  | 17.6 µM (inactive) | 22.4 µM (inactive) | 75 µM (inactive) | 76.6 µM (inactive) | 33.3 µM (inactive) | 22.9 µM (inactive)
NC(=O)NCCCC(NC(=O)OCCCCCCn1ccc(=O)[nH]c1=O)C(=O)O (stereo not drawn) | > 100 µM (inactive) | > 100 µM (inactive) | > 100 µM (inactive) | > 100 µM (inactive) | > 100 µM (inactive) | > 100 µM (inactive) | > 100 µM (inactive) | > 100 µM (inactive) | > 100 µM (inactive) | > 100 µM (inactive) | > 100 µM (inactive) | > 100 µM (inactive) | > 100 µM (inactive) | 34.5 µM (inactive) | > 100 µM (inactive) | > 100 µM (inactive) | > 100 µM (inactive) | > 100 µM (inactive) | 
CC(OC(C)(C)C)C1NC(=O)C(CCCCNC(=O)OC(C)(C)C)NC(=O)C(Cc2c[nH]c3ccccc23)NC(=O)C(Cc2ccccc2)NC(=O)C2(CCCC2)NC(=O)C(Cc2ccccc2)NC1=O (stereo not drawn) (cyclo([Ac5c]FWK(Boc)T(tBu)F); configuration not given here) | 24 µM (inactive) | 22.3 µM (inactive) | 50.2 µM (inactive) | 28.2 µM (inactive) | 43.2 µM (inactive) | 14.7 µM (inactive) | 33.3 µM (inactive) | 17.5 µM (inactive) | 16.6 µM (inactive) | 29.4 µM (inactive) | 41.5 µM (inactive) | 24.8 µM (inactive) |  | 10.7 µM (inactive) | 26 µM (inactive) | 49.4 µM (inactive) | 72.6 µM (inactive) | 20.7 µM (inactive) | 
CSC1=C(SC)SC(=C2SC3=C(SC(=C4SCCS4)S3)S2)S1 | > 100 µM (inactive) | > 100 µM (inactive) | > 100 µM (inactive) | > 100 µM (inactive) | > 100 µM (inactive) | > 100 µM (inactive) | > 100 µM (inactive) | > 100 µM (inactive) | > 100 µM (inactive) | > 100 µM (inactive) | > 100 µM (inactive) | > 100 µM (inactive) | > 100 µM (inactive) | > 100 µM (inactive) | > 100 µM (inactive) | > 100 µM (inactive) | > 100 µM (inactive) | > 100 µM (inactive) | 
Cc1ccc2nc(-c3ccccc3)cc(=O)n2c1 | > 100 µM (inactive) | > 100 µM (inactive) | > 100 µM (inactive) | > 100 µM (inactive) | > 100 µM (inactive) | > 100 µM (inactive) | > 100 µM (inactive) | > 100 µM (inactive) | > 100 µM (inactive) | > 100 µM (inactive) | 81.8 µM (inactive) | > 100 µM (inactive) | > 100 µM (inactive) | > 100 µM (inactive) | > 100 µM (inactive) | > 100 µM (inactive) | > 100 µM (inactive) | > 10 µM (inactive) | 
